Where “and” joins values, the source holds several entries; their conditions need not be identical. Equal values may be shown once. Read-outs that look alike come from different tables or passages of the source. No end group written: not given here. *: point of attachment. AMC = Cc1cc(=O)oc2cc(N*)ccc12
Legend:
[1] = tested on: VsHdaH (1b); format: biochemical, Vibrio sp.; conditions: VKDAC
[2] = tested on: RsPrpH (1b); experiment: Substrate screening assay (acyl-peptide-AMC); format: biochemical, Rhizorhabdus sp.; conditions: RsPrpH (1b); for [AMC]: Transform RFU in [AMC]
[3] = biological target: RwDmhA (1b) (Rhizorhabdus wittichii, UniProt A0A067XIQ6); format: biochemical; conditions: RwDmhA (1b)
[4] = biological target: KpHdaH (1b) (Klebsiella pneumoniae, UniProt A0A377Z5F6); format: biochemical; conditions: KpHdaH (1b)
[5] = biological target: T1, BsAcuC (2c) (Bacillus subtilis, UniProt P39067); experiment: Substrate screening assay (acyl-peptide-AMC); format: biochemical; conditions: BsAcuC (2c); for [AMC]: Transform RFU in [AMC]
T1 construct: made in house; host or cells: E. coli BL21 (DE3)
T1 sequence (P39067 1-387): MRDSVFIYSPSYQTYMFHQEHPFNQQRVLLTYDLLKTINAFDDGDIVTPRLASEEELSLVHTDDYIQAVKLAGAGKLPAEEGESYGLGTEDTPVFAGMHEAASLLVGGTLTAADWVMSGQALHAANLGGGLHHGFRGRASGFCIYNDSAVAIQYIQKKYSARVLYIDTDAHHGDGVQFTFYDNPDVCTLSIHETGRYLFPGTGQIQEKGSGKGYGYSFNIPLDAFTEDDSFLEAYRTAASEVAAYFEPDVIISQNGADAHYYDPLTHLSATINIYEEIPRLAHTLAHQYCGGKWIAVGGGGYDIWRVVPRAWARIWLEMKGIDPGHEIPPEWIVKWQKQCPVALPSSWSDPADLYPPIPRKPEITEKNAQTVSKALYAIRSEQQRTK
Description: (§1) Experiments with SIRT2 and SIRT5 were supplemented with NAD^+ (500 µM). Thereafter, a solution of trypsin (25 µL, 5.0 mg/mL; final concentration of 2.5 mg/mL) was added, and the development of the assay was allowed to proceed for 90 min at room temperature before fluorescence analysis. […] To this end, a single category is given to all conversions >48% on the heatmap. […] For the H4-derived peptide LGKbio no positive control was available.

[6] = tested on: VcHdaH (5b); format: biochemical, Vibrio cholerae; conditions: VcHdaH (5b); for [AMC]: Transform RFU in [AMC]
[7] = biological target: PsApaH (4) (Pseudomonas sp. M30-35, UniProt A0A1Y0KY79); format: biochemical; conditions: PsApaH (4)
Description: as §1

[8] = biological target: LcApaH (3) (Legionella cherrii, UniProt A0A0W0SGS1); format: biochemical
[9] = tested on: Controls; experiment: Substrate screening assay (acyl-peptide-AMC), control enzymes; format: biochemical; conditions: for [AMC]: Transform RFU in [AMC]
[10] = Transform RFU*2, Controls, Sample 1
[11] = Transform RFU*2, Controls, Sample 2

QPKKdec (QPKK-{AMC}; not fully specified (residue 4); printed as QPKKdec; also: decanoyl-lysine (which Lys not given here); UniProt P04637 317-320, looked up, fragment)
Relative Fluorescene Units (RFU) ([1]; Transform RFU*2, Sample 1): 126 RFU
Relative Fluorescene Units (RFU) ([1]; Transform RFU*2, Sample 2): 202 RFU
Relative Fluorescene Units (RFU) ([1]; Sample 1): 63 RFU
Relative Fluorescene Units (RFU) ([1]; Sample 2): 101 RFU
Relative Fluorescene Units (RFU) ([2]; Sample 1): 32 RFU
Relative Fluorescene Units (RFU) ([2]; Sample 2): 43 RFU
[AMC] ([2]; Sample 1): 31.25 nM
[AMC] ([2]; Sample 2): 41.99 nM
Relative Fluorescene Units (RFU) ([2]; Transform RFU*2, Sample 1): 64 RFU
Relative Fluorescene Units (RFU) ([2]; Transform RFU*2, Sample 2): 86 RFU
Relative Fluorescene Units (RFU) ([3]; Sample 1): 19 RFU
Relative Fluorescene Units (RFU) ([3]; Sample 2): 47 RFU
Relative Fluorescene Units (RFU) ([3]; Transform RFU*2, Sample 1): 38 RFU
Relative Fluorescene Units (RFU) ([3]; Transform RFU*2, Sample 2): 94 RFU
Relative Fluorescene Units (RFU) ([4]; Sample 1): 50 RFU
Relative Fluorescene Units (RFU) ([4]; Sample 2): 66 RFU
Relative Fluorescene Units (RFU) ([4]; Transform RFU*2, Sample 1): 100 RFU
Relative Fluorescene Units (RFU) ([4]; Transform RFU*2, Sample 2): 132 RFU
Relative Fluorescene Units (RFU) ([5]; Sample 1): 1598 RFU
Relative Fluorescene Units (RFU) ([5]; Sample 2): 1156 RFU
[AMC] ([5]; Sample 1): 1560.55 nM
[AMC] ([5]; Sample 2): 1128.91 nM
Relative Fluorescene Units (RFU) ([5]; Transform RFU*2, Sample 1): 3196 RFU
Relative Fluorescene Units (RFU) ([5]; Transform RFU*2, Sample 2): 2312 RFU
[AMC] ([6]; Sample 1): 77.15 nM
[AMC] ([6]; Sample 2): 27.34 nM
Relative Fluorescene Units (RFU) ([6]; Transform RFU*2, Sample 1): 158 RFU
Relative Fluorescene Units (RFU) ([6]; Transform RFU*2, Sample 2): 56 RFU
Relative Fluorescene Units (RFU) ([6]; Sample 1): 79 RFU
Relative Fluorescene Units (RFU) ([6]; Sample 2): 28 RFU
Relative Fluorescene Units (RFU) ([7]; Sample 1): 94 RFU
Relative Fluorescene Units (RFU) ([7]; Sample 2): 100 RFU
Relative Fluorescene Units (RFU) ([7]; Transform RFU*2, Sample 1): 188 RFU
Relative Fluorescene Units (RFU) ([7]; Transform RFU*2, Sample 2): 200 RFU
[AMC] [8]: 143.55 nM and 182.62 nM
Relative Fluorescene Units (RFU) [9]: 14990 RFU and 17431 RFU
[AMC] ([9]; Controls, Sample 1): 14.63867 µM
[AMC] ([9]; Controls, Sample 2): 17.02246 µM
Relative Fluorescene Units (RFU) [9, 10]: 29980 RFU
Relative Fluorescene Units (RFU) [9, 11]: 34862 RFU

QPKKmyr (QPKK-{AMC}; not fully specified (residue 4); printed as QPKKmyr; also: myristoyl-lysine (which Lys not given here); UniProt P04637 317-320, looked up, fragment)
Relative Fluorescene Units (RFU) ([1]; Transform RFU*2, Sample 1): 354 RFU
Relative Fluorescene Units (RFU) ([1]; Transform RFU*2, Sample 2): -1178 RFU
Relative Fluorescene Units (RFU) ([1]; Sample 1): 177 RFU
Relative Fluorescene Units (RFU) ([1]; Sample 2): -589 RFU
Relative Fluorescene Units (RFU) ([2]; Sample 1): -108 RFU
Relative Fluorescene Units (RFU) ([2]; Sample 2): -824 RFU
[AMC] ([2]; Sample 1): -105.47 nM
[AMC] ([2]; Sample 2): -804.69 nM
Relative Fluorescene Units (RFU) ([2]; Transform RFU*2, Sample 1): -216 RFU
Relative Fluorescene Units (RFU) ([2]; Transform RFU*2, Sample 2): -1648 RFU
Relative Fluorescene Units (RFU) ([3]; Sample 1): -346 RFU
Relative Fluorescene Units (RFU) ([3]; Sample 2): -865 RFU
Relative Fluorescene Units (RFU) ([3]; Transform RFU*2, Sample 1): -692 RFU
Relative Fluorescene Units (RFU) ([3]; Transform RFU*2, Sample 2): -1730 RFU
Relative Fluorescene Units (RFU) ([4]; Sample 1): 178 RFU
Relative Fluorescene Units (RFU) ([4]; Sample 2): 116 RFU
Relative Fluorescene Units (RFU) ([4]; Transform RFU*2, Sample 1): 356 RFU
Relative Fluorescene Units (RFU) ([4]; Transform RFU*2, Sample 2): 232 RFU
Relative Fluorescene Units (RFU) ([5]; Sample 1): 313 RFU
Relative Fluorescene Units (RFU) ([5]; Sample 2): 767 RFU
[AMC] ([5]; Sample 1): 305.66 nM
[AMC] ([5]; Sample 2): 749.02 nM
Relative Fluorescene Units (RFU) ([5]; Transform RFU*2, Sample 1): 626 RFU
Relative Fluorescene Units (RFU) ([5]; Transform RFU*2, Sample 2): 1534 RFU
[AMC] ([6]; Sample 1): -96.68 nM
[AMC] ([6]; Sample 2): -269.53 nM
Relative Fluorescene Units (RFU) ([6]; Transform RFU*2, Sample 1): -198 RFU
Relative Fluorescene Units (RFU) ([6]; Transform RFU*2, Sample 2): -552 RFU
Relative Fluorescene Units (RFU) ([6]; Sample 1): -99 RFU
Relative Fluorescene Units (RFU) ([6]; Sample 2): -276 RFU
Relative Fluorescene Units (RFU) ([7]; Sample 1): 40 RFU
Relative Fluorescene Units (RFU) ([7]; Sample 2): 113 RFU
Relative Fluorescene Units (RFU) ([7]; Transform RFU*2, Sample 1): 80 RFU
Relative Fluorescene Units (RFU) ([7]; Transform RFU*2, Sample 2): 226 RFU
Relative Fluorescene Units (RFU) [9]: 6155 RFU and 7393 RFU
[AMC] ([9]; Controls, Sample 1): 6.01074 µM
[AMC] ([9]; Controls, Sample 2): 7.21973 µM
Relative Fluorescene Units (RFU) [9, 10]: 12310 RFU
Relative Fluorescene Units (RFU) [9, 11]: 14786 RFU

Reference: PMC11532494 (Nature Communications, 2024)
